Calls of active or inactive are those of the source. No stated cut-off is given here; in the data, actives have a measured IC50 and inactives only a lower limit.
target: Envelope glycoprotein gp160 (Human immunodeficiency virus 1, UniProt Q6QLK5); assay: inhibitors of HIV fusion peptide binding, primary screen, biochemical, uHTS, fluorescence dequenching (AID 1986)
Sequence (Q6QLK5 whole entry, the tested form may be a part): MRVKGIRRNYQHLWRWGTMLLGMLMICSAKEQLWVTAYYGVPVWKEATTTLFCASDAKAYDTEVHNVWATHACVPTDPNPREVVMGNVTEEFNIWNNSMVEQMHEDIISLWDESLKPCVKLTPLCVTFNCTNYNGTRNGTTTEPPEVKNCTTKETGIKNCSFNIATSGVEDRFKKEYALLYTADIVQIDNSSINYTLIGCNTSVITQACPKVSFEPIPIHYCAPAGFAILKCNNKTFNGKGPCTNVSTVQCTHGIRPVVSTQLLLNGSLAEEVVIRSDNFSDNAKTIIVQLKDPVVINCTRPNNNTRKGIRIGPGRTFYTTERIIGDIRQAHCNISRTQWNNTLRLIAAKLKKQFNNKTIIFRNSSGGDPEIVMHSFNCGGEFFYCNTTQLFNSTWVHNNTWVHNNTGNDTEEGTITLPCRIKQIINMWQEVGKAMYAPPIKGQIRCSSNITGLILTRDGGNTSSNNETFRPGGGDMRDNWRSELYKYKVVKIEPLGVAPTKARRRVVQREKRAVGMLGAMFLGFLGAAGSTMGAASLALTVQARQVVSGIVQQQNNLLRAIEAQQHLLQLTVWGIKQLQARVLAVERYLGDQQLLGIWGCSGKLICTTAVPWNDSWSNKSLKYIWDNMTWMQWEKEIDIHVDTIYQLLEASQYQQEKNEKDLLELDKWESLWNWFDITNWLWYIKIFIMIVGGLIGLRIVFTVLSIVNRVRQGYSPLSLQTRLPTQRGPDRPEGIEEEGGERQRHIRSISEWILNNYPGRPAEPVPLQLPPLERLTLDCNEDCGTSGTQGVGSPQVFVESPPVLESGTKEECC

SMILES	IC50
O=C(NCCc1ccccc1)c1ccc2c(=O)[nH]c3c(C(=O)NCC4CCCO4)sc(=S)n3c2c1 (centres undefined)	27.8 µM (active)
CCOc1cc(/C=C2\C(=O)N(c3cccc(C(=O)O)c3)N=C2C(F)(F)F)ccc1OCC(=O)Nc1ccccc1OC	3.88 µM (active)
COc1ccc(-c2cc(-c3ccc(Cl)cc3)c(C#N)c(SCC(=O)O)n2)cc1	19.4 µM (active)
O=C(O)c1ccc(/C=N/NC(=O)c2ccc(CN3c4cccc5cccc(c45)S3(=O)=O)cc2)cc1	19.7 µM (active)
